Like-named read-outs stand apart in the source and are kept apart here.
Assays:
[1] = system: VZV; test: Viral qPCR assay, VZV in MRC5 cells; format: cell-based, varicella zoster virus; conditions: read-out: VZV MRC5 Cell (IC50)
Procedure: (§1) MRCS cells, Vero cells, and MeWo cells were obtained from ATCC and were maintained at 37° C./5% CO2/90% relative humidity in Minimal Essential Medium with 10% fetal bovine serum, […] L-glutamine, 100 units/ml penicillin and 100 ug/ml streptomycin. Assay plates were prepared by dispensing compounds dissolved in DMSO into wells of 384 well collagen-coated plates using an ECHO acoustic dispenser. Each compound was tested in a 10-point, serial 3-fold dilution. Controls included uninfected cells and infected cells treated only with DMSO. Assays were initiated by mixing selected cells, in suspension, with virus, and dispensing 50 μl/well infected cells to pre-plated compounds. Plates were incubated at 37° C./5% CO2/90% relative humidity for ˜72 hrs to permit genomic replication, and infected cells were lysed by the addition of an equal volume of lysis buffer (10 mM Tris-HCl, pH8, 50 mM KCl, 2 mM MgCl2, 0.45% NP-40, 0.45% Tween-20, and 100 μg/ml proteinase K). An aliquot of the lysate was transferred to a 384-well PCR plate and incubated at 56° C. for 1 hour and then at 95° C. for 10 min. Levels of a viral gene and of the cellular control, PPIA (Thermo Fisher Assay ID=Hs04194521_s1), were measured in separate 10 μL qPCR assays using TaqMan® Gene Expression Master Mix (Applied Biosystems), and an 7900HT Fast Real-Time PCR System with 384-Well Block Module. 7-point, serial 10-fold dilutions of a plasmid standard were run on each plate to generate a standard curve, and genome copies numbers were calculated by plotting experimental Ct onto linear regression of the standard curve. Viral genome copy numbers were normalized by cellular control copy number, and compound effects were normalized to the window defined by the controls. Calculated % effects were fit using a 4-parameter algorithm, and EC50 was reported.
as §1, with “gene” for “gene and of the cellular control, PPIA (Thermo Fisher Assay ID=Hs04194521_s1),”, “in” for “in separate”, “Compound effects on viral” for “Viral”, “number” for “numbers were normalized by cellular control copy number, and compound effects”
(§2) VZV: Strain Street was maintained as an infected cell stock in MRC-5 cells. It was assayed in MeWo or MRCS cells and was used at 0.04-0.1 pfu/cell. The assays were performed in growth medium. Primer-probe set was Thermo Fisher Assay ID=AIPAEXQ. HSV-1: Strain F Street was assayed in Vero or MRCS cells and was used at 0.0005-0.004 pfu/cell in growth medium. Primer-probe set was Thermo Fisher Assay ID=AIBJZIB

[2] = target: T1, Human cytomegalovirus DNA polymerase (Human cytomegalovirus, UniProt P08546); test: HCMV polymerase assay (AlphaLISA); format: biochemical; conditions: HCMV DNA polymerase 0.2 nM, 60 minutes at 37° C.; read-out: CMV (IC50)
T1 construct: made in house; host or cells: SF21 insect cells (baculovirus vector)
Procedure: Human cytomegalovirus and varicella zoster virus DNA polymerases were expressed via baculovirus vector in SF21 cells and purified. Heterodimeric nucleic acid substrate used in the herpesvirus polymerase reactions was generated by annealing a 59-mer template to a 17-mer digoxigenin-labeled primer. Polymerase (HCMV final concentration of 0.2 nM; VZV final concentration of 0.4 nM) was combined with an inhibitor compound or DMSO in assay buffer (10 mM HEPES, pH 7.5, 25 mM KCl, 25 mM NaCl, 5 mM MgCl2, 5% glycerol, 0.67 mg/ml bovine serum albuminutes, and 1 mM tris(2-carboxyethyl)phosphine), and this mixture was pre-incubated for 30 minutes at room temperature in 384-well microtiter plates. The polymerization reaction was initiated by the addition of template/primer substrate (final concentration: 1.6 nM), and dNTPs (final concentration: 24 nM dCTP, 24 nMdGTP, 16 nM dATP, 16 nM dTTP, and 0.8 nM biotin-dUTP). After 60 minutes incubation at 37° C., reactions were terminated with quench buffer (25 mM HEPES pH 7.5, 100 mM NaCl, 0.25% Tween-20, 12 mM EDTA, and 1 mg/ml bovine serum albumin). Incorporation of biotinylated UTP was detected with 2.5-ug/ml anti-DIG AlphaLISA acceptor beads and 5-10 ug/ml streptavidin AlphaLISA donor beads (Perkin Elmer). Compound effects were normalized to the window defined by the controls (DMSO only and pre-quenched wells) and were fit using a 4-parameter algorithm to report an IC50.

[3] = system: HSV2; test: Viral qPCR assay, HSV2 in MRC5 cells; format: cell-based, Herpes Simplex Virus type 2; conditions: read-out: HSV2 MRC5 Cell (EC50)
Procedure: as §1
as §1, with “gene” for “gene and of the cellular control, PPIA (Thermo Fisher Assay ID=Hs04194521_s1),”, “in” for “in separate”, “Compound effects on viral” for “Viral”, “number” for “numbers were normalized by cellular control copy number, and compound effects”

[4] = system: HCMV Strain AD169; test: Viral qPCR assay, HCMV in MRC-5 cells; format: cell-based, Human cytomegalovirus; conditions: read-out: CMV MRC5 Cell (EC50)
Procedure: as §1
as §1, with “gene” for “gene and of the cellular control, PPIA (Thermo Fisher Assay ID=Hs04194521_s1),”, “in” for “in separate”, “Compound effects on viral” for “Viral”, “number” for “numbers were normalized by cellular control copy number, and compound effects”
HCMV: Strain AD169 Street was assayed in MRC-5 cells and was used at 0.05-0.1 pfu/cell. The assays were performed in either growth media or in the same media with 50% fetal bovine serum. Primer-probe set was Thermo Fisher Assay ID=AIFATFK.

[5] = system: HSV-1 Strain F; test: Viral qPCR assay, HSV-1 in MRC5 cells; format: cell-based, Herpes Simplex Virus type 1; conditions: read-out: HSV1 MRC5 Cell (EC50)
Procedure: as §1
as §1, with “gene” for “gene and of the cellular control, PPIA (Thermo Fisher Assay ID=Hs04194521_s1),”, “in” for “in separate”, “Compound effects on viral” for “Viral”, “number” for “numbers were normalized by cellular control copy number, and compound effects”
as §2

[6] = Human alphaherpesvirus 3, MRC5, 72 h
[7] = Human alphaherpesvirus 2, MRC5, 72 h
[8] = Human betaherpesvirus 5, AD169, MRC5, 72 h
[9] = Human alphaherpesvirus 1, MRC5, 72 h

T1 sequence (P08546 whole entry): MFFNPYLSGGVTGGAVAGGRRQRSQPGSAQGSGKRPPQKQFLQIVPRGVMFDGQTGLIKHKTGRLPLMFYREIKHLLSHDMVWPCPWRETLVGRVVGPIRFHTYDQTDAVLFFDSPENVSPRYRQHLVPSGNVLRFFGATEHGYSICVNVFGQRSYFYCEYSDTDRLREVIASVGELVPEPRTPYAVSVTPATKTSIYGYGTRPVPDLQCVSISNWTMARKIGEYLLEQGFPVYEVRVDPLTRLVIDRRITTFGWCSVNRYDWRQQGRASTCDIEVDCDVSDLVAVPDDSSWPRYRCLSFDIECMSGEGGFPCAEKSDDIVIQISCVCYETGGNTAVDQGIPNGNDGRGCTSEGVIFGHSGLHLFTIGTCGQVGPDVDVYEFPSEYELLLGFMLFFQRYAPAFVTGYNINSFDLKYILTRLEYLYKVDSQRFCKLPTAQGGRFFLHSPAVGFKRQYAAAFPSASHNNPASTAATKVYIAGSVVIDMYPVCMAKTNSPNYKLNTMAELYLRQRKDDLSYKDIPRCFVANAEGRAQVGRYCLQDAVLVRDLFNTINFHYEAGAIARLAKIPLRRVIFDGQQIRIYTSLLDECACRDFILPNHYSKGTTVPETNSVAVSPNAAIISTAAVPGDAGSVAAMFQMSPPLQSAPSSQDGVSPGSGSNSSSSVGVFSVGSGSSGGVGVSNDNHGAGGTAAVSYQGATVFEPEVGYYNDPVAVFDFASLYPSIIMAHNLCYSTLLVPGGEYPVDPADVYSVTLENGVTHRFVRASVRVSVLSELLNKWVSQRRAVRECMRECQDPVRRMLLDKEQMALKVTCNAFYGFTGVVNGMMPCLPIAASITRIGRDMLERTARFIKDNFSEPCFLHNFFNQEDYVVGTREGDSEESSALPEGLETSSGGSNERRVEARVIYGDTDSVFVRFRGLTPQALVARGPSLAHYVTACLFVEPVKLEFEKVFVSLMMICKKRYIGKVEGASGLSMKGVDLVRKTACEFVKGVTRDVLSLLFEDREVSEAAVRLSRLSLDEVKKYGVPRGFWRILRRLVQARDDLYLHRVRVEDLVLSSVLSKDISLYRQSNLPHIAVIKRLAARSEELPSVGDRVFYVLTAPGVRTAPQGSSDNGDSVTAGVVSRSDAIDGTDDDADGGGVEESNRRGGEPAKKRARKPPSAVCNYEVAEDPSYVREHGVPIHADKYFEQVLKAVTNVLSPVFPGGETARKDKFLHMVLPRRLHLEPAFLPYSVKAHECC

Structure (SMILES) | IC50 [2] [µM] | EC50 ([4]; MRC5 cells, ~72 hrs) [µM] | EC50 [4, 8] [µM] | also measured
CC(C1CCC(=O)N1)N1Cc2c(C(=O)NCc3ccc(Cl)cc3)nn(C)c2C1 (single isomer, unassigned) [Compound 1] | 0.235 | 4.48 | – | IC50 ([1]; ~72 hrs): 7.53 µM; EC50 ([3]; ~72 hrs): 6.74 µM; EC50 ([5]; ~72 hrs): 9.98 µM
CC(C1CC(F)(F)C(=O)N1)N1Cc2c(C(=O)NCc3ccc(Cl)cc3)nn(C)c2C1 (single isomer, unassigned) [Compound 83] | 13.3 | – | 99 | –
CCC(C1CCC(=O)N1)N1Cc2c(C(=O)NCc3ccc(Cl)cc3)nn(C)c2C1 (stereo not shown) [Compound 91] | 8.61 | 99 | – | –
CCC(C1CCC(=O)N1)N1Cc2c(C(=O)NCc3ccc(Cl)cc3)nn(C)c2C1 (single isomer, unassigned) [Compound 89] | 0.8 | – | 7.64 | –
Cn1nc(C(=O)NCc2ccc(Cl)cc2)c2c1CN(CC1CCC(=O)N1)C2 (stereo not shown) [Compound 88] | 13.3 | 33 | – | –
CC(C1CC(F)C(=O)N1)N1Cc2c(C(=O)NCc3ccc(Cl)cc3)nn(C)c2C1 (stereo not shown) [Compound 74] | 0.815 | 28.1 | – | –
CC(C)[C@H]1c2c(c(C(=O)NCc3ccc(Cl)cc3)nn2C)CN1C(C)C1CCC(=O)N1 (single isomer, unassigned) [Compound 117] | 0.68 | 4.64 | – | –
CC(C)[C@H]1c2c(c(C(=O)NCc3ccc(Cl)cc3)nn2C)CN1C(C)C1CCC(=O)N1 (single isomer, unassigned) [Compound 116] | 10.9 | 99 | – | –
CC1c2c(c(C(=O)NCc3ccc(Cl)cc3)nn2C)CN1C(C)C1CCC(=O)N1 (stereo not shown) [Compound 110] | 2.9 | 22.2 | – | –
CC(C1CC(F)(F)C(=O)N1)N1Cc2c(C(=O)NCc3ccc(Cl)cc3)nn(C)c2C1 (stereo not shown) [Compound 84] | 13.3 | 40 | – | –
CC(=O)OCC1c2c(c(C(=O)NCc3ccc(Cl)cc3)nn2C)CN1C[C@H]1CCC(=O)N1 (single isomer, unassigned) [Compound 119] | 7.85 | 99 | – | –
Cn1nc(C(=O)NCc2ccc(Cl)cc2)c2c1C(CO)N(C[C@H]1CCC(=O)N1)C2 (single isomer, unassigned) [Compound 121] | 13.3 | – | 99 | –
CC1c2c(c(C(=O)NCc3ccc(Cl)cc3)nn2C)CN1CC1CCC(=O)N1 (single isomer, unassigned) [Compound 108] | 0.702 | 1.96 | – | –

These reach a lower IC50 [2]. Values come first.

IC50 [2] [µM] | Structure (SMILES) | EC50 ([4]; MRC5 cells, ~72 hrs) [µM] | EC50 [4, 8] [µM] | also measured
0.0317 | CCC(C1CCC(=O)N1)N1Cc2c(C(=O)NCc3ccc(Cl)cc3)nn(C)c2C1 (stereo not shown) [Compound 90] | 0.212 | – | IC50 ([1]; ~72 hrs): 1.23 µM; EC50 ([3]; ~72 hrs): 1.18 µM; EC50 ([5]; ~72 hrs): 1.32 µM
0.011 | O=C1CC[C@H](CN2Cc3c(C(=O)NCc4ccc(Cl)cc4)nn(-c4cnsn4)c3C2)N1 [Compound 22] | 0.313 | – | IC50 ([1]; ~72 hrs): 0.413 µM; EC50 ([3]; ~72 hrs): 0.251 µM; EC50 ([5]; ~72 hrs): 0.231 µM
0.0338 | O=C1CC[C@@H](CN2Cc3c(C(=O)NCc4ccc(Cl)cc4)nn(C4CCOC4)c3C2)N1 (single isomer, unassigned) [Compound 44] | 1.1 | – | IC50 ([1]; ~72 hrs): 2.37 µM; EC50 ([3]; ~72 hrs): 2.95 µM; EC50 ([5]; ~72 hrs): 2.5 µM
0.0762 | CC([C@@H]1CCC(=O)N1)N1Cc2c(C(=O)NCc3ccc(Cl)cc3)nn(C(F)F)c2C1 (stereo partly shown) [Compound 71] | – | – | IC50 ([1]; ~72 hrs): 1.21 µM; EC50 ([3]; ~72 hrs): 1.07 µM; EC50 ([5]; ~72 hrs): 2.08 µM
0.0269 | O=C1CC[C@@H](CN2Cc3c(C(=O)NCc4ccc(Cl)cc4)nn(-c4ncccn4)c3C2)N1 [Compound 31] | – | 0.435 | IC50 [1, 6]: 1.47 µM; EC50 [3, 7]: 1.41 µM; EC50 [5, 9]: 1.04 µM
0.023 | CCC1c2c(c(C(=O)NCc3ccc(Cl)cc3)nn2C)CN1C[C@H]1CCC(=O)N1 (single isomer, unassigned) [Compound 105] | 0.479 | – | IC50 ([1]; ~72 hrs): 0.289 µM; EC50 ([3]; ~72 hrs): 0.274 µM; EC50 ([5]; ~72 hrs): 0.335 µM
0.0711 | O=C1CC[C@H](CN2Cc3c(C(=O)NCc4ccc(Cl)cc4)nn(-c4ncc5ccccc5n4)c3C2)N1 [Compound 18] | – | 0.555 | IC50 [1, 6]: 0.368 µM; EC50 [3, 7]: 0.108 µM; EC50 [5, 9]: 0.229 µM
0.188 | CC(C)[C@H]1c2c(c(C(=O)NCc3ccc(Cl)cc3)nn2C)CN1C[C@H]1CCC(=O)N1 [Compound 113] | 4.83 | – | –
0.144 | C=CC[C@]1(CN2Cc3c(C(=O)NCc4ccc(Cl)cc4)nn(C)c3C2)CCC(=O)N1 [Compound 96] | – | 1.12 | –
0.0192 | O=C1CC[C@H](CN2Cc3c(C(=O)NCc4ccc(Cl)cc4)nn(-c4ncc(CO)s4)c3C2)N1 [Compound 9] | – | 0.644 | –
0.0776 | CC(C)[C@@H]1c2c(c(C(=O)NCc3ccc(Cl)cc3)nn2C)CN1C[C@@H]1CCC(=O)N1 [Compound 114] | – | 1.1 | –
0.031 | O=C1CC[C@H](CN2Cc3c(C(=O)NCc4ccc(Cl)cc4)nn(-c4nc(-c5ccccc5)cs4)c3C2)N1 [Compound 15] | – | 1.1 | –
0.129 | O=C1CC[C@H](CN2Cc3c(C(=O)NCc4ccc(Cl)cc4)nn([C@H]4CCCOC4)c3C2)N1 [Compound 51] | – | 1.79 | –
0.0361 | O=C1CC[C@H](CN2Cc3c(C(=O)NCc4ccc(Cl)cc4)nn(-c4ncc(O)cn4)c3C2)N1 [Compound 17] | – | 51.4 | –
0.148 | Cn1nccc1-n1nc(C(=O)NCc2ccc(Cl)cc2)c2c1CN(C[C@H]1CCC(=O)N1)C2 [Compound 24] | – | 0.997 | –
